According to US5162304A, “Pharmaceutical compositions and methods for treatment and prophylaxis of cancer” (priority 1990, dated 1992):
Where “and” joins values, the source holds several entries; their conditions need not be identical. Identical values can stand only once.

Key:
bladder mucous membrane = assay: Test 10: pathological changes in bladder mucous membrane after BBN and sodium erythorbate; type: in vivo, male F344 rats; conditions: 250 mg/kg in feed; for Number of animals with cancer / Number of animals with papilloma / Number of animals with papillary or tuberous hyperplasia: 28 observed; for Number of animals with cancer: unadministered 19 of 27; for Number of animals with papilloma: unadministered 20 of 27; for Number of animals with papillary or tuberous hyperplasia: unadministered 27 of 27; for Cancer, incidence: unadministered 70; for Papilloma, incidence: unadministered 74; for Papillary or tuberous hyperplasia, incidence: unadministered 100
Source text: 5 groups of 6-week old male F344 rats were givn 0.05% (by weight. The definition is to be followed hereinafter) aqueous solution of N-butyl-N-(4-hydroxybutyl)nitrosoamine (BBN: bladder carcinogenic compound), as an initiator, by water supplying bottles for 4 weeks.

[1] = test system: Ehrlich's ascites carcinoma cells; assay: Test 1: survival of mice inoculated with Ehrlich's ascites carcinoma cells; type: in vivo, ddY mice; conditions: i.p., 10 mg/kg/day for 5 days, from 24 hours after inoculation
Method: 5-week old ddY mice were intraperitoneally inoculated with 10^6 Ehrlich's ascites carcinoma cells. Since 24 hours later, 50 mg/ml suspension of a test compound in 0.25% (% by weight. The definition is to be followed hereinafter) solution of Pluronic F68 in physiological saline was intraperitoneally injected to 10 animals/group at a dose of 10 mg/kg/day for 5 days.

stomach carcinoma = assay: Test 9: stomach carcinoma after MNNG; type: in vivo, male Wistar rats; conditions: for Histological classification (per animal) / Borrmann's Classification (per animal): 250 mg/kg feed orally for 126 days after MNNG; for Borrmann's Classification (per animal): gross observation; for Survival time (per animal): 250 mg/kg feed, 337 = day of sacrifice; for Cause of death (per animal): 250 mg/kg feed orally
Method: 40 male Wistar rats (8-9-week old, body weight; 110 g) were given a drinking water containing 167 μg/ml of N-methyl-N'-nitro-N-nitrosoguanidine (MNNG: a carcinogenic compound) and a feed (dry pellets CE-2, produced by CLEA JAPAN) for 210 days.
The rats were allotted to 5 groups and treated as follows since the 211th day.
Administered group A: n=8. The compound A of the present invention (See below. The definition is to be followed hereinafter) was administered orally in an amount of 250 mg/kg feed for 126 consecutive days.
Administered group B: n=8. The compound B of the present invention was administered orally in an amount of 250 mg/kg feed for 126 consecutive days.
Administered group C: n=8. The compound C of the present invention was administered orally in an amount of 250 mg/kg feed for 126 consecutive days.
Administered group D: n=8. The compound D of the present invention was administered orally in an amount of 250 mg/kg feed for 126 consecutive days.
On the 337th day, the survining rats were sacrificed and the stomachs were (1) subjected to Borrmann's classification according to gross observation and (2) histologically observed (haematoxylin-eosin stain or ASAN stain), and then classified as follows.

[2] = Carcinostatic, carcinostasis-reinforcing and carcinogenesis-preventing activities (general statement)
mammary cancer = assay: Test 8: prevention of DMBA-induced mammary cancer; type: in vivo, female SD rats; conditions: DMBA 5 mg/body, 20 weeks, unadministered 15/30
Method: 6-week old female SD rats (n=90) were treated as follows using 14-methyl-1-pentadecanol as a carcinogenesis-preventing agent.
Unadministered group: n=30. MF powder feed (ORIENTAL KOBO K.K.) was given as a basic feed.
Administered group A: n=30. A test feed was given continually (for 7 days). The feed was prepared by admixing the said carcinogenesis-preventing agent (after emulsified in Pluronic F-68) with the abovementioned basic feed in an amount of 50 mg/kg.
Administered group B: n=30. A test feed was given continually (for 7 days). The feed was prepared by admixing the said carcinogenesis-preventing agent (after emulsified in Pluronic F-68) with the abovementioned basic feed in an amount of 250 mg/kg.
After the aforementioned treatment, 5 mg/body of […] (DMBA: a carcinogenic compound) was administered by injecting subcutaneously in mammary gland 0.1 ml/body of a 50 mg/ml benzanthracene solution. Then, each of the aforementioned groups was given corresponding feed for 20 weeks.
After the completion of the treatment, the rats were sacrificed and observed for the occurrence of mammary cancer.

[3] = test system: Ehrlich's mouse ascites carcinoma cells; assay: Test 3: growth of Ehrlich's mouse ascites carcinoma cells; type: cell-based; conditions: for tumor growth suppressing effect: Ehrlich's cells; for activity at 10 µM: Mus musculus, Ehrlich, 120 h, 5-day treatment at 10 μM, read-out: growth suppressed to
Method: (§1) 14-methyl-1-pentadecanol and 18-methyl-1-nonadecanol were tested for tumor growth suppressing effects on three different tumor cell strains (Ehrlich's mouse ascites carcinoma cells, human lung carcinoma A549 cells and mouse neuroblastoma NAs-1 cells).
These isomonools suppressed the growth of Ehrlich's ascites carcinoma cells to 4.5×10^-3 and 1.5×10^-2, respectively, by 5-day treatment at 10 μM.

Ehrlich's ascites cells = assay: Test 6 and Comparing Test 2: uptake of bleomycin into Ehrlich's ascites cells; type: cell-based, mouse; conditions: bleomycin 60 μg/ml + isomonool 0.05 μM
Method: The amount of bleomycin taken up into Ehrlich's ascites cells was determined as a function of time in the case where bleomycin (60 μg/ml) was used in combination with 14-methyl-1-pentadecanol (0.05 μM).

[4] = test system: mouse neuroblastoma NAs-1 cells; assay: Test 3: growth of mouse neuroblastoma NAs-1 cells; type: cell-based; conditions: for tumor growth suppressing effect: NAs-1 cells; for growth suppressed to: treatment conditions not given
Method: as §1
The growth of mouse neuroblastoma NAs-1 cells was suppressed to 7.8×10^-3 and 6.5×10^-3, respectively.

[5] = test system: human lung carcinoma A549 cells; assay: Test 3: colony formation of human lung carcinoma A549 cells; type: cell-based; conditions: for tumor growth suppressing effect: A549 cells; for activity at 10 µM: Homo sapiens, A549, 6-hour treatment at 10 μM, read-out: colony formation rate
Method: as §1
These isomonools suppressed the colony formation rate of human lung A549 cells to 2.2×10^-3 and 4.1×10^-3, respectively, by 6-hour treatment at 10 μM.

[6] = test system: Ehrlich's mouse ascites carcinoma cells; assay: Test 7 and Comparing Tests 3 and 4: survival of mice inoculated with Ehrlich's mouse ascites carcinoma cells; type: in vivo, male C57BL/6 mice; conditions: bleomycin + isomonool; for Number of surviving mice: of 8
Method: 5-week old male C57BL/6 mice were intraperitoneally inoculated with 10^6 Ehrlich's mouse ascites carcinoma cells. Since 24 hours later, a 50 μg/ml solution of bleomycin in 0.25% HCO-60 solution in physiological saline, and a suspension containing 50 μg/ml of bleomycin and 5 μg/ml of 14-methyl-1-pentadecanol were intraperitoneally injected at a dose of 10 mg/kg·day and 11 mg/kg·day, respectively, to each 8 animals/group for 5 days. The survival time of the injected mice was then followed.

adenocarcinoma 755 cells = assay: Test 2: tumor growth suppression in mice inoculated with adenocarcinoma 755 cells; type: in vivo, F1 mongrel mice of C57BL/6 and DBA/2; conditions: s.c., 10 mg/kg/day for 5 days; 10 days after inoculation; control 6.5
Source text: 6-week old F1 mongrel mice of C57BL/6 and DBA/2 were inoculated under back skin with 10^6 adenocarcinoma 755 cells. […] The animals were sacrificed 10 days after the inoculation with adenocarcinoma 755 cells, and the tumor was excised.

CCCC(C)CCCCCCCCCCCCCO (centres unmarked) [14-methyl-1-heptadecanol]
Number of animals with cancer (bladder mucous membrane): 0
Number of animals with papilloma (bladder mucous membrane): 0
Number of animals with papillary or tuberous hyperplasia (bladder mucous membrane): 0
Cancer, incidence (bladder mucous membrane): 0%
Papilloma, incidence (bladder mucous membrane): 0%
Papillary or tuberous hyperplasia, incidence (bladder mucous membrane): 0%

CCC(C)CCCCCCCCCCCCCO (centres unmarked) [14-methyl-1-hexadecanol]
mean survival time after inoculation [1]: 57.5 days
Histological classification (per animal) (stomach carcinoma): I and 0
Borrmann's Classification (per animal) (stomach carcinoma): 0
carcinostatic, carcinostasis-reinforcing and carcinogenesis-preventing activities [2]: especially potent in activities
Number of animals with cancer (bladder mucous membrane): 0
Number of animals with papilloma (bladder mucous membrane): 0
Number of animals with papillary or tuberous hyperplasia (bladder mucous membrane): 0
Cancer, incidence (bladder mucous membrane): 0%
Papilloma, incidence (bladder mucous membrane): 0%
Papillary or tuberous hyperplasia, incidence (bladder mucous membrane): 0%

CC(C)CCCCCCCCCCCCCO [14-methyl-1-pentadecanol]
mean survival time after inoculation [1]: ≥ 60 days
Number of animals with mammary cancer/Number of tested animals (mammary cancer; group A, 50 mg/kg in feed): 8/30
Number of animals with mammary cancer/Number of tested animals (mammary cancer; group B, 250 mg/kg in feed): 4/30
Histological classification (per animal) (stomach carcinoma): I and 0
Borrmann's Classification (per animal) (stomach carcinoma): 0
Survival time (per animal) (stomach carcinoma): 337 days
tumor growth suppressing effect [3]: effective
activity at 10 µM [3]: 0.45%
Bleomycin uptake (Ehrlich's ascites cells; 30 min): 0.13 μg/mg Ehrlich's cell
Bleomycin uptake (Ehrlich's ascites cells; 60 min): 0.26 μg/mg Ehrlich's cell
Bleomycin uptake (Ehrlich's ascites cells; 120 min): 0.39 μg/mg Ehrlich's cell
Bleomycin uptake (Ehrlich's ascites cells; 180 min): 0.55 μg/mg Ehrlich's cell
Bleomycin uptake (Ehrlich's ascites cells; Initial): 0 μg/mg Ehrlich's cell
tumor growth suppressing effect [4]: effective
growth suppressed to [4]: 7.8×10^-3
carcinostatic, carcinostasis-reinforcing and carcinogenesis-preventing activities [2]: especially potent in activities
tumor growth suppressing effect [5]: effective
activity at 10 µM [5]: 0.22%
mean survival time after inoculation ([6]; i.p., 11 mg/kg.day for 5 days (Test 7)): 54.3 days
Number of surviving mice ([6]; day 14): 8
Number of surviving mice ([6]; day 15): 8
Number of surviving mice ([6]; day 16): 8
Number of surviving mice ([6]; day 17): 8
Number of surviving mice ([6]; day 18): 8
Number of surviving mice ([6]; day 19): 8
Number of surviving mice ([6]; day 20): 8
Number of surviving mice ([6]; day 23): 8
Number of surviving mice ([6]; day 33): 8
Number of surviving mice ([6]; day 41): 8
Number of surviving mice ([6]; day 45): 6
Number of surviving mice ([6]; day 52): 4
Number of surviving mice ([6]; day 57): 4
Number of surviving mice ([6]; day 60): 4

CC(C)CCCCCCCCCCCCCCCO [16-methyl-1-heptadecanol]
Cause of death (per animal) (stomach carcinoma): dead in cage
Histological classification (per animal) (stomach carcinoma): 0 and I-II
Borrmann's Classification (per animal) (stomach carcinoma): 0
Survival time (per animal) (stomach carcinoma): 305 days and 337 days
mean tumor weight (adenocarcinoma 755 cells): 1.6 g
Number of animals with cancer (bladder mucous membrane): 0
Number of animals with papilloma (bladder mucous membrane): 0
Number of animals with papillary or tuberous hyperplasia (bladder mucous membrane): 1
Cancer, incidence (bladder mucous membrane): 0%
Papilloma, incidence (bladder mucous membrane): 0%
Papillary or tuberous hyperplasia, incidence (bladder mucous membrane): 4%

CCC(C)CCCCCCCCCCCCCCCO (centres unmarked) [16-methyl-1-octadecanol]
Cause of death (per animal) (stomach carcinoma): dead in cage
Histological classification (per animal) (stomach carcinoma): I and 0 and I-II
Borrmann's Classification (per animal) (stomach carcinoma): 0
Survival time (per animal) (stomach carcinoma): 301 days and 312 days and 337 days
mean tumor weight (adenocarcinoma 755 cells): 2.3 g

CC(C)CCCCCCCCCCCCCCCCCO [18-methyl-1-nonadecanol]
tumor growth suppressing effect [3]: effective
activity at 10 µM [3]: 1.5%
tumor growth suppressing effect [4]: effective
growth suppressed to [4]: 6.5×10^-3
tumor growth suppressing effect [5]: effective
activity at 10 µM [5]: 0.41%
Number of animals with cancer (bladder mucous membrane): 0
Number of animals with papilloma (bladder mucous membrane): 0
Number of animals with papillary or tuberous hyperplasia (bladder mucous membrane): 2
Cancer, incidence (bladder mucous membrane): 0%
Papilloma, incidence (bladder mucous membrane): 0%
Papillary or tuberous hyperplasia, incidence (bladder mucous membrane): 7%
